Values joined by “and” are separate entries in the source; they are usually repeats but may differ in a detail not shown here. Equal values may be shown once. One block for each molecule: values may come before it.
Tested on: 885512-296-R-J2-PDC complex spheroid viability
Experiment: Anticancer human tumor 885512-296-R-J2-PDC patient-derived breast carcinoma cell line growth inhibition [GQUAD]
Conditions: for viability, T/C: stronger effect = lower value
Text: DNA G-quadruplex Stabilizer Agents in Combinations in Complex Spheroids
A high-throughput screen of multi-cell type tumor spheroids was designed to identify active combinations of DNA G-quadruplex stabilizer agents and targeted small molecules. Complex spheroids include a stromal component modeled by human endothelial cells (HUVEC) and fibroblasts modeled by human mesenchymal stem cells (MSCs). The concentration ranges selected for each drug and investigational agent were based upon clinically achievable concentrations if the clinical Cmax of the agent was known.
Compounds. The drugs and investigational agents: pidnarulex (CX-5461; NSC782164), APTO-253 (NSC789042), BRACO-19 (NSC847499), peposertib (NSC802822), ceralasertib (NSC780249), elimusertib (NSC800525), camonsertib (NSC841442), AZD-1390 (NSC803789), olaparib (NSC753686), talazoparib (NSC767125), ART-558 (NSC835418), sotorasib (NSC818433), MRTX-1133 (NSC836407), SN-38 (NSC673596), topotecan (NSC609699), etoposide (NSC141540), doxorubicin (NSC123127), gemcitabine (NSC613327), 5-fluorouracil (NSC19893), paclitaxel (NSC125973), vemurafenib (NSC761431), panobinostat (NSC761190), R-306465 (JNJ-16241199; NSC773264), adavosertib (NSC754352), TP-3654 (NSC805149), carboplatin (NSC241240), KSQ-4279 (NSC840948), and staurosporine (NSC755774) were obtained from the National Cancer Institute (NCI) Developmental Therapeutics Program Chemical Repository (34). The FDA-approved anticancer drug set is available from the NCI Developmental Therapeutics Program. […] The stock solutions were prepared in dimethyl sulfoxide (DMSO, Sigma-Aldrich, St. Louis, MO, cat. D2650) at 800-fold the tested concentration and stored at -70 degrees C prior to their use. All drugs and investigational agents were tested over a range starting from a high concentration at or near the clinical Cmax and decreasing in half-log increments. If the clinical Cmax for an agent had not been determined, the highest concentration tested was 10 microM.
2.3 Cell Culture. All cells were maintained in an incubator at 37 degrees C and 5% CO2 with 95% humidity. The PDC lines were cultured according to standard operating procedures established by the NCI PDMR. All PDCs were thawed and cultured in Matrigel-coated flasks prepared with a working solution of 1X Ham's F-12 nutrient mix, without supplementation (Invitrogen, cat. 11765054), 100 U/mL penicillin-streptomycin (Invitrogen, cat. 15140122), and 2.5% Matrigel (Corning Inc., cat. 354248) for the first three passages. The 857933-349-R-J2-PDC line was cultured in 6C/Colon 1B media, which includes advanced DMEM/F-12 (Thermo Fisher Scientific, cat. 12634028), 10 mM HEPES (Thermo Fisher Scientific, cat. 15630080), 1X GlutaMAX supplement (Thermo Fisher Scientific, cat. 35050061), 0.1 mg/mL primocin (InvivoGen, cat. ant-pm-2), 10% defined fetal bovine serum, heat inactivated (HyClone Laboratories Inc., cat. SH30070.03HI), 50% L-WRN conditioned media (ATCC, cat. CRL-3276), 1.25 mM N-Acetyl-L-cysteine (Sigma-Aldrich, cat. A9165), 10 mM nicotinamide (Sigma-Aldrich, cat. N0636), 1X B-27 supplement (Thermo Fisher Scientific, cat. 17504044), 1X N-2 supplement (Thermo Fisher Scientific, cat. 17502048), 10 microM Y-27632 dihydrochloride (Tocris Bioscience, cat. 1254), and 50 ng/mL human EGF recombinant protein (Thermo Fisher Scientific, cat. PHG0311). The 485176-168-R4-J1-PDC line was cultured in Panc media, which includes all 6C/Colon 1B media components plus 100 ng/mL human FGF-10 (Thermo Fisher Scientific, cat. 100-26), 500 nM SB-431542 (Selleckchem, cat. S1067), and gastrin (Tocris, cat. 3006).
[…]
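Note: spheroids exposed to the compounds for one week.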
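Throughout, for viability, T/C: percent of tumor spheroid viability relative to DMSO vehicle control wells.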

Compound: COc1cccc2c1C(=O)c1c(O)c3c(c(O)c1C2=O)CC(O)(C(=O)CO)CC3OC1CC(N)C(O)C(C)O1 (stereo not drawn) + Cc1[nH]c2ccc(F)cc2c1-c1nc2c3cccnc3c3ncccc3c2[nH]1
IC50 (curve of first compound, second compound 0.0316 µM): 89.6 nM
IC50 (curve of first compound, second compound 0.1 µM): 84.1 nM
IC50 (curve of first compound, second compound 0.316 µM): 81.9 nM
IC50 (curve of first compound, second compound 1 µM): 58 nM
IC50 (curve of first compound, second compound 3.16 µM): < 31.6 nM
IC50 (curve of first compound, second compound 10 µM): < 31.6 nM
viability, T/C (second compound 0.0316 µM, first compound 0.0316 µM): 96.2%
viability, T/C (second compound 0.0316 µM, first compound 0.1 µM): 41.8%
viability, T/C (second compound 0.0316 µM, first compound 0.316 µM): 25.3%
viability, T/C (second compound 0.0316 µM, first compound 1 µM): 9.04%
viability, T/C (second compound 0.0316 µM, first compound 3.16 µM): 0.5%
viability, T/C (second compound 0.0316 µM, first compound 10 µM): 2.46%
viability, T/C (second compound 0.1 µM, first compound 0.0316 µM): 101%
viability, T/C (second compound 0.1 µM, first compound 0.1 µM): 36.4%
viability, T/C (second compound 0.1 µM, first compound 0.316 µM): 23.9%
viability, T/C (second compound 0.1 µM, first compound 1 µM): 10.9%
viability, T/C (second compound 0.1 µM, first compound 3.16 µM): 0.36%
viability, T/C (second compound 0.1 µM, first compound 10 µM): 3.62%
viability, T/C (second compound 0.316 µM, first compound 0.0316 µM): 85.5%
viability, T/C (second compound 0.316 µM, first compound 0.1 µM): 39.4%
viability, T/C (second compound 0.316 µM, first compound 0.316 µM): 25.1%
viability, T/C (second compound 0.316 µM, first compound 1 µM): 8.52%
viability, T/C (second compound 0.316 µM, first compound 3.16 µM): 0.35%
viability, T/C (second compound 0.316 µM, first compound 10 µM): 2.33%
viability, T/C (second compound 1 µM, first compound 0.0316 µM): 67.7%
viability, T/C (second compound 1 µM, first compound 0.1 µM): 32%
viability, T/C (second compound 1 µM, first compound 0.316 µM): 20%
viability, T/C (second compound 1 µM, first compound 1 µM): 7.54%
viability, T/C (second compound 1 µM, first compound 3.16 µM): 0.39%
viability, T/C (second compound 1 µM, first compound 10 µM): 2.51%
viability, T/C (second compound 3.16 µM, first compound 0.0316 µM): 17.2%
viability, T/C (second compound 3.16 µM, first compound 0.1 µM): 12.3%
viability, T/C (second compound 3.16 µM, first compound 0.316 µM): 4.34%
viability, T/C (second compound 3.16 µM, first compound 1 µM): 2.57%
viability, T/C (second compound 3.16 µM, first compound 3.16 µM): 0.34%
viability, T/C (second compound 3.16 µM, first compound 10 µM): 1.2%
viability, T/C (second compound 10 µM, first compound 0.0316 µM): 1.64%
viability, T/C (second compound 10 µM, first compound 0.1 µM): 1.76%
viability, T/C (second compound 10 µM, first compound 0.316 µM): 2.1%
viability, T/C (second compound 10 µM, first compound 1 µM): 1.15%
viability, T/C (second compound 10 µM, first compound 3.16 µM): 0.87%
viability, T/C (second compound 10 µM, first compound 10 µM): 0.81%

IC50 (compound alone, run of 04/16/2024): 1.75 µM [middle of 8 runs]
IC50 (compound alone, run of 04/22/2024): 1.54 µM [middle of 4 runs]
Compound: Cc1[nH]c2ccc(F)cc2c1-c1nc2c3cccnc3c3ncccc3c2[nH]1
viability, T/C (compound 0.0316 µM): 99.9% [middle of 12 runs]
viability, T/C (compound 0.1 µM): 101% [middle of 12 runs]
viability, T/C (compound 0.316 µM): 97.9% [middle of 12 runs]
viability, T/C (compound 1 µM): 76.9% [middle of 12 runs]
viability, T/C (compound 10 µM): 3.15% [middle of 12 runs]

IC50 (curve of compound): < 31.6 nM
Compound: CC1COCCN1c1cc(-c2ccnn2C)c2ccnc(-c3ccn[nH]3)c2n1 (stereo not drawn)
viability, T/C (compound 0.0316 µM): 48% and 48.8% and 42.3%
viability, T/C (compound 0.1 µM): 6.72% and 6.01% and 7.2%
viability, T/C (compound 0.316 µM): 2.82% and 3.14% and 2.97%
viability, T/C (compound 1 µM): 3.36% and 4.09% and 3.06%
viability, T/C (compound 3.16 µM): 4.39% and 4.91% and 5.11%
viability, T/C (compound 10 µM): 7.29% and 7.28% and 8.11%

IC50 (curve of compound): > 10000 nM
Compound: CC(C)n1c(=O)n(C)c2cnc3cc(F)c(-c4ccc(OCCCN5CCCCC5)nc4)cc3c21
viability, T/C (compound 0.0316 µM): 88.8% and 89% and 85.8%
viability, T/C (compound 0.1 µM): 97% and 84.5% and 80.4%
viability, T/C (compound 0.316 µM): 88% and 93.7% and 77.8%
viability, T/C (compound 1 µM): 85.8% and 90.9% and 79.7%
viability, T/C (compound 3.16 µM): 104% and 97.5% and 90.3%
viability, T/C (compound 10 µM): 100% and 105% and 104%

From PubChem BioAssay AID2060490 (Molecular Pharmacology Branch, DTP, NCI, 2025)
